Key:
[1] = target: GDP-bound KRAS wild-type protein (Homo sapiens, UniProt P01116); assay: Binding to KRAS by surface plasmon resonance (SPR), Single Cycle Kinetics; conditions: SPR, Single Cycle Kinetics, GDP-bound KRAS wild-type protein; read-out: KRAS KD
[2] = target: GDP-bound NRAS wild-type protein (Homo sapiens, UniProt P01111); assay: Binding to NRAS by surface plasmon resonance (SPR), Single Cycle Kinetics; conditions: SPR, GDP-bound NRAS wild-type protein vs GDP-bound KRAS wild-type protein
GDP-bound NRAS wild-type protein, sequence (P01111 whole entry): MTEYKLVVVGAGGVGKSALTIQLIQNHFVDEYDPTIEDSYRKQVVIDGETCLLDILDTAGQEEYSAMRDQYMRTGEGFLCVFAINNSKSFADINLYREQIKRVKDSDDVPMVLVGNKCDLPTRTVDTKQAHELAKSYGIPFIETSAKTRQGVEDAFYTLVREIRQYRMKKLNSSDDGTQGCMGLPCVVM

[3] = target: GDP-bound HRAS wild-type protein (Homo sapiens, UniProt P01112); assay: Binding to HRAS by surface plasmon resonance (SPR), Single Cycle Kinetics; conditions: SPR, GDP-bound HRAS wild-type protein vs GDP-bound KRAS wild-type protein
GDP-bound HRAS wild-type protein, sequence (P01112 whole entry): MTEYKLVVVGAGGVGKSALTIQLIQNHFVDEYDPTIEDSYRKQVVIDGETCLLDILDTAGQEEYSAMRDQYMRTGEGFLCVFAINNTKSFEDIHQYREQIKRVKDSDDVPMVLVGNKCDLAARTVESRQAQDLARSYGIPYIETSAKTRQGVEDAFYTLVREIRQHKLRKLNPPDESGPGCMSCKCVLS

GDP-bound KRAS wild-type protein, sequence (P01116 whole entry): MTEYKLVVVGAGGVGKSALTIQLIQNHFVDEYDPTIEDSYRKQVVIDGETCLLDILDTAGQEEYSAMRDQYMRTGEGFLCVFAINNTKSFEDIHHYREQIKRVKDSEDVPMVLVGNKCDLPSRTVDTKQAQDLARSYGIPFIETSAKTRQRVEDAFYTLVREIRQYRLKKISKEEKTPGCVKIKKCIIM

Row | Structure (SMILES) | Kd [1] | NRAS/KRAS (ratio of KD value for NRAS to KD value for KRAS) [2] | HRAS/KRAS (ratio of KD value for HRAS to KD value for KRAS) [3]
1 | C#CCN1CC(=O)N(C)[C@H]2C/C=C\CCN(C2=O)[C@@H](Cc2ccc(C)cc2)C(=O)N(C)CC(=O)N[C@@H](CCc2cc(F)c(C(F)(F)F)c(F)c2)C(=O)N2C[C@H](OCC)C[C@H]2C(=O)NC2(CC(C)(C)C2)C(=O)N(C)[C@@H](C2CCCC2)C(=O)N(C)[C@H](C(=O)N(C)C)CC(=O)N(C)[C@@H](CCC)C(=O)N[C@@H]([C@@H](C)CC)C1=O [PP2095] | 0.15 nM | A (a compound having 10 or more and less than 20 is denoted as A) | A (a compound having 10 or more and less than 20 is denoted as A)
2 | CCCN1CC(=O)N(C)[C@H]2C/C=C\CCN(C2=O)[C@@H](Cc2ccc(C)cc2)C(=O)N(C)CC(=O)N[C@@H](CCc2ccc(C(F)(F)F)c(OC)c2)C(=O)N2C[C@H](OCC)C[C@H]2C(=O)NC2(CC(C)(C)C2)C(=O)N(C)[C@@H](C2CCCC2)C(=O)N(C)[C@H](C(=O)N(C)C)CC(=O)N(C)[C@@H](CC)C(=O)N[C@@H]([C@@H](C)CC)C1=O [PP2096] | 0.42 nM | A (a compound having 10 or more and less than 20 is denoted as A) | A (a compound having 10 or more and less than 20 is denoted as A)
3 | C=CCN1CC(=O)N(C)[C@H]2C/C=C\CCN(C2=O)[C@@H](Cc2ccc(C)cc2)C(=O)N(C)CC(=O)N[C@@H](CCc2ccc(C(F)(F)F)c(OC)c2)C(=O)N2C[C@H](OCC)C[C@H]2C(=O)NC2(CC(C)(C)C2)C(=O)N(C)[C@@H](C2CCCC2)C(=O)N(C)[C@H](C(=O)N(C)C)CC(=O)N(C)[C@@H](CCC)C(=O)N[C@@H]([C@@H](C)CC)C1=O [PP2098] | 0.2 nM | A (a compound having 10 or more and less than 20 is denoted as A) | A (a compound having 10 or more and less than 20 is denoted as A)
4 | CCC[C@H]1C(=O)N[C@@H]([C@@H](C)CC)C(=O)N(C2CC2)CC(=O)N(C)[C@H]2C/C=C\CCN(C2=O)[C@@H](Cc2ccc(C(F)(F)F)cc2)C(=O)N(C)CC(=O)N[C@@H](CCc2cc(F)c(C(F)(F)F)c(F)c2)C(=O)N2C[C@H](OCC)C[C@H]2C(=O)NC2(CC(C)(C)C2)C(=O)N(C)[C@@H](C2CCCC2)C(=O)N(C)[C@H](C(=O)N(C)C)CC(=O)N1C [PP2101] | 0.32 nM | A (a compound having 10 or more and less than 20 is denoted as A) | B (a compound having 3 or more and less than 10 is denoted as B)
5 | C=CCN1CC(=O)N(C)[C@H]2C/C=C\CCN(C2=O)[C@@H](Cc2ccc(C(F)(F)F)cc2)C(=O)N(C)CC(=O)N[C@@H](CCc2cc(F)c(C(F)(F)F)c(F)c2)C(=O)N2C[C@H](OCC)C[C@H]2C(=O)NC2(CC(C)(C)C2)C(=O)N(C)[C@@H](C2CCCC2)C(=O)N(C)[C@H](C(=O)N(C)C)CC(=O)N(C)[C@@H](CCC)C(=O)N[C@@H]([C@@H](C)CC)C1=O [PP2102] | 0.16 nM | A (a compound having 10 or more and less than 20 is denoted as A) | A (a compound having 10 or more and less than 20 is denoted as A)
6 | C#CCN1CC(=O)N(C)[C@H]2C/C=C\CCN(C2=O)[C@@H](Cc2ccc(C(F)(F)F)cc2)C(=O)N(C)CC(=O)N[C@@H](CCc2cc(F)c(C(F)(F)F)c(F)c2)C(=O)N2C[C@H](OCC)C[C@H]2C(=O)NC2(CC(C)(C)C2)C(=O)N(C)[C@@H](C2CCCC2)C(=O)N(C)[C@H](C(=O)N(C)C)CC(=O)N(C)[C@@H](CCC)C(=O)N[C@@H]([C@@H](C)CC)C1=O [PP2103] | 0.25 nM | A (a compound having 10 or more and less than 20 is denoted as A) | A (a compound having 10 or more and less than 20 is denoted as A)
7 | CCC[C@H]1C(=O)N[C@@H]([C@@H](C)CC)C(=O)N(C2CC2)CC(=O)N(C)[C@H]2C/C=C\CCN(C2=O)[C@@H](Cc2ccc(C(F)(F)F)cc2)C(=O)N(C)CC(=O)N[C@@H](CCc2ccc(C(F)(F)F)c(OC)c2)C(=O)N2C[C@H](OCC)C[C@H]2C(=O)NC2(CC(C)(C)C2)C(=O)N(C)[C@@H](C2CCCC2)C(=O)N(C)[C@H](C(=O)N(C)C)CC(=O)N1C [PP2105] | 0.18 nM | A (a compound having 10 or more and less than 20 is denoted as A) | A (a compound having 10 or more and less than 20 is denoted as A)
8 | C=CCN1CC(=O)N(C)[C@H]2C/C=C\CCN(C2=O)[C@@H](Cc2ccc(C(F)(F)F)cc2)C(=O)N(C)CC(=O)N[C@@H](CCc2ccc(C(F)(F)F)c(OC)c2)C(=O)N2C[C@H](OCC)C[C@H]2C(=O)NC2(CC(C)(C)C2)C(=O)N(C)[C@@H](C2CCCC2)C(=O)N(C)[C@H](C(=O)N(C)C)CC(=O)N(C)[C@@H](CCC)C(=O)N[C@@H]([C@@H](C)CC)C1=O [PP2106] | 0.2 nM | A (a compound having 10 or more and less than 20 is denoted as A) | A (a compound having 10 or more and less than 20 is denoted as A)
9 | C#CCN1CC(=O)N(C)[C@H]2C/C=C\CCN(C2=O)[C@@H](Cc2ccc(C(F)(F)F)cc2)C(=O)N(C)CC(=O)N[C@@H](CCc2ccc(C(F)(F)F)c(OC)c2)C(=O)N2C[C@H](OCC)C[C@H]2C(=O)NC2(CC(C)(C)C2)C(=O)N(C)[C@@H](C2CCCC2)C(=O)N(C)[C@H](C(=O)N(C)C)CC(=O)N(C)[C@@H](CCC)C(=O)N[C@@H]([C@@H](C)CC)C1=O [PP2107] | 0.15 nM | A (a compound having 10 or more and less than 20 is denoted as A) | A (a compound having 10 or more and less than 20 is denoted as A)
10 | CCO[C@@H]1C[C@H]2C(=O)NC3(CCC3)C(=O)N(C)[C@@H](C3CCCC3)C(=O)N(C)[C@H](C(=O)N(C)CC)CC(=O)N(C)[C@H]3CCCCCc4ccc(cc4)C[C@@H](C(=O)N(C)CC(=O)N[C@@H](CCc4ccc(C(F)(F)F)c(OC)c4)C(=O)N2C1)N1CC/C=C\C[C@@H](C1=O)N(C)C(=O)CN(C)C(=O)[C@H]([C@@H](C)CC)NC3=O [PP2118] | 0.15 nM | A (a compound having 10 or more and less than 20 is denoted as A) | B (a compound having 3 or more and less than 10 is denoted as B)
11 | CCO[C@@H]1C[C@H]2C(=O)NC3(CC(C)(C)C3)C(=O)N(C)[C@@H](C(CC)CC)C(=O)N(C)[C@H](C(=O)N(C)C)CC(=O)N(C)[C@@H](CC3CC3)C(=O)N[C@@H]([C@@H](C)CC)C(=O)N(C)CC(=O)N(C)[C@H]3C/C=C\CCN(C3=O)[C@@H](Cc3ccc(C(F)(F)F)cc3)C(=O)N(C)CC(=O)N[C@@H](CCc3cc(F)c(C(F)(F)F)c(F)c3)C(=O)N2C1 [PP2119] | 5 nM | A (a compound having 10 or more and less than 20 is denoted as A) | B (a compound having 3 or more and less than 10 is denoted as B)
12 | CCO[C@@H]1C[C@H]2C(=O)NC3(CC(C)(C)C3)C(=O)N(C)[C@@H](C(CC)CC)C(=O)N(C)[C@H](C(=O)N(C)C)CC(=O)N(C)[C@@H](CC3CCC3)C(=O)N[C@@H]([C@@H](C)CC)C(=O)N(C)CC(=O)N(C)[C@H]3C/C=C\CCN(C3=O)[C@@H](Cc3ccc(C)cc3)C(=O)N(C)CC(=O)N[C@@H](CCc3ccc(Cl)c(Cl)c3)C(=O)N2C1 [PP2120] | 0.91 nM | AA (a compound having 20 or more is denoted as AA) | A (a compound having 10 or more and less than 20 is denoted as A)
13 | CCO[C@@H]1C[C@H]2C(=O)NC3(CC(C)(C)C3)C(=O)N(C)[C@@H](C(CC)CC)C(=O)N(C)[C@H](C(=O)N(C)C)CC(=O)N(C)[C@@H](COC)C(=O)N[C@@H]([C@@H](C)CC)C(=O)N(C)CC(=O)N(C)[C@H]3C/C=C\CCN(C3=O)[C@@H](Cc3ccc(C(F)(F)F)cc3)C(=O)N(C)CC(=O)N[C@@H](CCc3cc(F)c(C(F)(F)F)c(F)c3)C(=O)N2C1 [PP2121] | 1.5 nM | AA (a compound having 20 or more is denoted as AA) | A (a compound having 10 or more and less than 20 is denoted as A)
14 | CCO[C@@H]1C[C@H]2C(=O)NC3(CC(C)(C)C3)C(=O)N(C)[C@@H](C(CC)CC)C(=O)N(C)[C@H](C(=O)N(C)C)CC(=O)N(C)[C@@H](C(C)C)C(=O)N[C@@H]([C@@H](C)CC)C(=O)N(C)CC(=O)N(C)[C@H]3C/C=C\CCN(C3=O)[C@@H](Cc3ccc(C)cc3)C(=O)N(C)CC(=O)N[C@@H](CCc3ccc(Cl)c(Cl)c3)C(=O)N2C1 [PP2122] | 1.4 nM | AA (a compound having 20 or more is denoted as AA) | A (a compound having 10 or more and less than 20 is denoted as A)
15 | CCO[C@@H]1C[C@H]2C(=O)NC3(CC(C)(C)C3)C(=O)N(C)[C@@H](C(CC)CC)C(=O)N(C)[C@H](C(=O)N3CCCC3)CC(=O)N(C)[C@@H](COC)C(=O)N[C@@H]([C@@H](C)CC)C(=O)N(C)CC(=O)N(C)[C@H]3C/C=C\CCN(C3=O)[C@@H](Cc3ccc(C(F)(F)F)cc3)C(=O)N(C)CC(=O)N[C@@H](CCc3cc(F)c(C(F)(F)F)c(F)c3)C(=O)N2C1 [PP2123] | 0.25 nM | A (a compound having 10 or more and less than 20 is denoted as A) | A (a compound having 10 or more and less than 20 is denoted as A)
